Key:
[1] = tested on: P2X4; settings: cited from earlier work
[2] = tested on: P2X5; settings: cited from earlier work
[3] = tested on: P2X2; settings: cited from earlier work
[4] = tested on: cP2X3^WT; assay: Patch-clamp recording of ATP current, cP2X3 WT in HEK293 cells; type: cell-based, chicken; settings: AF-219 30 μM
[5] = tested on: P2X1; settings: cited from earlier work
[6] = target: P2X3 receptors; settings: read-out: IC50, the concentration yielding half of the maximal inhibition; cited from earlier work
[7] = tested on: cP2X3^A196G; assay: Patch-clamp recording of ATP current, cP2X3 A196G in HEK293 cells; type: cell-based, chicken; settings: AF-219 30 μM
[8] = tested on: P2X7; settings: cited from earlier work
[9] = tested on: rP2X3^L191A; settings: cited from earlier work
[10] = tested on: rP2X2^gain; settings: rP2X2^gain versus rP2X3^WT

Row | SMILES | IC50 [1] [µM] | IC50 [2] [µM] | IC50 [3] [µM] | Effect on the ATP (10 μM)-current of cP2X3^WT [4] | IC50 [5] [µM] | IC50 [6] [µM] | Effect on the ATP (10 μM)-current of cP2X3^A196G [7] | IC50 [8] [µM] | Inhibition of rP2X3^L191A [9] | Fold increase of IC50 for rP2X2^gain over rP2X3^WT [10] [fold]
1 | COc1cc(C(C)C)c(Oc2cnc(N)nc2N)cc1S(N)(=O)=O [AF-219] | > 10 | > 10 | > 10 | no inhibitory effect | > 10 | 0.0426 ± 0.0029 | significantly inhibited | > 10 | almost fully abolished the inhibition | –
2 | CCC(C)c1cc(OC)c(Cl)cc1Oc1cnc(N)nc1N (stereo not shown) [AF-219-2, 5-(2-(sec-butyl)-5-chloro-4-methoxyphenoxy)pyrimidine-2,4-diamine] | – | – | – | – | – | – | – | – | – | 18

— paper PMC9014320 (Computational and Structural Biotechnology Journal, 2022)
